According to article PMC10215302 (Antibiotics, 2023):
Values after ≈ are worked out from the molar mass of the structure shown. Read-outs that look alike come from different tables or passages of the source.

Assays:
[1] = system: S. aureus derivative strains; format: cell-based, Staphylococcus aureus; conditions: AUC of tested strain / AUC of S. aureus Mu50
S. aureus SA0077 = conditions: for MIC values: Table S1: SA0077 Abf (passages on antibiotic-free media)
S. aureus SA0085 = conditions: for MIC values: Table S1: SA0085 Abf (passages on antibiotic-free media)
S. aureus RN4220 = conditions: for change of MICs on deletion of SACOL1927 (yfhP): S. aureus mutant strain RN4220, allele replacement; for MIC: Table S4: RN4220
[2] = system: S. aureus derivative strains
[3] = system: S. aureus (VISA/hVISA isolates; MprF P314L strains); conditions: MprF AAS P314L, cited from earlier work
[4] = SA0077, selecting agent DAP, passage 5
[5] = SA0077, selecting agent DAP, passage 20
[6] = SA0077, selecting agent DAP, passage 40
[7] = SA0077, selecting agent VAN, passage 0
[8] = SA0077, selecting agent VAN, passage 5
[9] = SA0077, selecting agent VAN, passage 20
[10] = SA0077, selecting agent VAN, passage 40
[11] = Table S4: SA0077, strain before selection
[12] = SA0085, selecting agent DAP, passage 5
[13] = SA0085, selecting agent DAP, passage 20
[14] = SA0085, selecting agent DAP, passage 40
[15] = SA0085, selecting agent VAN, passage 0
[16] = SA0085, selecting agent VAN, passage 5
[17] = SA0085, selecting agent VAN, passage 20
[18] = SA0085, selecting agent VAN, passage 40
[19] = Table S4: SA0085, strain before selection
[20] = SA0422, selecting agent DAP, passage 5
[21] = SA0422, selecting agent DAP, passage 20
[22] = SA0422, selecting agent DAP, passage 40
[23] = SA0422, selecting agent VAN, passage 0
[24] = SA0422, selecting agent VAN, passage 5
[25] = SA0422, selecting agent VAN, passage 20
[26] = SA0422, selecting agent VAN, passage 40
[27] = Table S4: SA0422, strain before selection
[28] = SA0736, selecting agent DAP, passage 5
[29] = SA0736, selecting agent DAP, passage 20
[30] = SA0736, selecting agent DAP, passage 40Y (yellow colonies)
[31] = SA0736, selecting agent VAN, passage 0
[32] = SA0736, selecting agent VAN, passage 20
[33] = SA0736, selecting agent VAN, passage 40
[34] = Table S1: SA0736 DAP-W (40 passages on daptomycin, white colonies)
[35] = Table S1: SA0736 DAP-Y (40 passages on daptomycin, yellow colonies)
[36] = Table S4: SA0736, strain before selection
[37] = ATCC 29213, selecting agent DAP, passage 5
[38] = ATCC 29213, selecting agent DAP, passage 20
[39] = ATCC 29213, selecting agent DAP, passage 40
[40] = ATCC 29213, selecting agent VAN, passage 0
[41] = ATCC 29213, selecting agent VAN, passage 5
[42] = ATCC 29213, selecting agent VAN, passage 20
[43] = ATCC 29213, selecting agent VAN, passage 40
[44] = Table S4: ATCC 29213, strain before selection
[45] = Table S1: RN4220 ∆ (strain with deletion in SACOL1927)

vancomycin
PAP AUC ratio ([1]; after 40 passages in vancomycin): 1.0–1.2 | PAP AUC ratio ([1]; after daptomycin selection): 0.4–1.0 | MIC (S. aureus SA0077; [4]): 2 µg/mL | MIC (S. aureus SA0077; [5]): 4 µg/mL | MIC (S. aureus SA0077; [6]): 4 µg/mL | MIC (S. aureus SA0077; [7]): 1 µg/mL | MIC (S. aureus SA0077; [8]): 4 µg/mL | MIC (S. aureus SA0077; [9]): 8 µg/mL | MIC (S. aureus SA0077; [10]): 8 µg/mL | MIC values (S. aureus SA0077): 1 µg/mL | MIC (S. aureus SA0077; [11]): 1 µg/mL | MIC (S. aureus SA0085; [12]): 1 µg/mL | MIC (S. aureus SA0085; [13]): 2 µg/mL | MIC (S. aureus SA0085; [14]): 4 µg/mL | MIC (S. aureus SA0085; [15]): 1 µg/mL | MIC (S. aureus SA0085; [16]): 4 µg/mL | MIC (S. aureus SA0085; [17]): 4 µg/mL | MIC (S. aureus SA0085; [18]): 8 µg/mL | MIC values (S. aureus SA0085): 1 µg/mL | MIC (S. aureus SA0085; [19]): 1 µg/mL | MIC (S. aureus SA0422; [20]): 1 µg/mL | MIC (S. aureus SA0422; [21]): 2 µg/mL | MIC (S. aureus SA0422; [22]): 2 µg/mL | MIC (S. aureus SA0422; [23]): 1 µg/mL | MIC (S. aureus SA0422; [24]): 2 µg/mL | MIC (S. aureus SA0422; [25]): 4 µg/mL | MIC (S. aureus SA0422; [26]): 4 µg/mL | MIC (S. aureus SA0422; [27]): 1 µg/mL | MIC (S. aureus SA0736; [28]): 0.5 µg/mL | MIC (S. aureus SA0736; [29]): 4 µg/mL | MIC (S. aureus SA0736; SA0736, selecting agent DAP, passage 40W (white colonies)): 4 µg/mL | MIC (S. aureus SA0736; [30]): 4 µg/mL | MIC (S. aureus SA0736; [31]): 0.5 µg/mL | MIC (S. aureus SA0736; [32]): 8 µg/mL | MIC (S. aureus SA0736; [33]): 8 µg/mL | MIC values (S. aureus SA0736; [34]): 4 µg/mL | MIC values (S. aureus SA0736; [35]): 4 µg/mL | MIC (S. aureus SA0736; [36]): 0.5 µg/mL | MIC (S. aureus ATCC 29213; [37]): 1 µg/mL | MIC (S. aureus ATCC 29213; [38]): 2 µg/mL | MIC (S. aureus ATCC 29213; [39]): 4 µg/mL | MIC (S. aureus ATCC 29213; [40]): 0.25 µg/mL | MIC (S. aureus ATCC 29213; [41]): 0.25 µg/mL | MIC (S. aureus ATCC 29213; [42]): 2 µg/mL | MIC (S. aureus ATCC 29213; [43]): 8 µg/mL | MIC (S. aureus ATCC 29213; [44]): 0.25 µg/mL | change of MICs on deletion of SACOL1927 (yfhP) (S. aureus RN4220): did not change | MIC values (S. aureus RN4220; Table S1: RN4220 WT): 0.5 µg/mL | MIC values (S. aureus RN4220; [45]): 0.5 µg/mL | MIC (S. aureus RN4220): 0.5 µg/mL | MICs of derivative strains at the end of selection with vancomycin ([2]; derivative strains, end of vancomycin selection): 4 to 8 µg/mL | change of MICs after 10 passages in antibiotic-free media ([2]; vancomycin-selected derivatives, stability test): decreased by one dilution

CCCCCCCCCC(=O)N[C@@H](Cc1c[nH]c2ccccc12)C(=O)N[C@H](CC(N)=O)C(=O)N[C@@H](CC(=O)O)C(=O)N[C@@H]1C(=O)NCC(=O)N[C@@H](CCCN)C(=O)N[C@@H](CC(=O)O)C(=O)N[C@H](C)C(=O)N[C@@H](CC(=O)O)C(=O)NCC(=O)N[C@H](CO)C(=O)N[C@@H]([C@H](C)CC(=O)O)C(=O)N[C@@H](CC(=O)c2ccccc2N)C(=O)O[C@@H]1C [DAP, daptomycin]
MIC (S. aureus SA0077; [4]): 0.5 µg/mL (≈ 0.309 µM) | MIC (S. aureus SA0077; [5]): 8 µg/mL (≈ 4.94 µM) | MIC (S. aureus SA0077; [6]): 32 µg/mL (≈ 19.7 µM) | MIC (S. aureus SA0077; [7]): 0.25 µg/mL (≈ 0.154 µM) | MIC (S. aureus SA0077; [8]): 2 µg/mL (≈ 1.23 µM) | MIC (S. aureus SA0077; [9]): 2 µg/mL (≈ 1.23 µM) | MIC (S. aureus SA0077; [10]): 2 µg/mL (≈ 1.23 µM) | MIC values (S. aureus SA0077): 0.25 µg/mL (≈ 0.154 µM) | MIC (S. aureus SA0077; [11]): 0.25 µg/mL (≈ 0.154 µM) | MIC (S. aureus SA0085; [12]): 0.5 µg/mL (≈ 0.309 µM) | MIC (S. aureus SA0085; [13]): 32 µg/mL (≈ 19.7 µM) | MIC (S. aureus SA0085; [14]): >64 µg/mL | MIC (S. aureus SA0085; [15]): 0.5 µg/mL (≈ 0.309 µM) | MIC (S. aureus SA0085; [16]): 1 µg/mL (≈ 0.617 µM) | MIC (S. aureus SA0085; [17]): 2 µg/mL (≈ 1.23 µM) | MIC (S. aureus SA0085; [18]): 2 µg/mL (≈ 1.23 µM) | MIC values (S. aureus SA0085): 0.5 µg/mL (≈ 0.309 µM) | MIC (S. aureus SA0085; [19]): 0.5 µg/mL (≈ 0.309 µM) | MIC (S. aureus SA0422; [20]): 8 µg/mL (≈ 4.94 µM) | MIC (S. aureus SA0422; [21]): 16 µg/mL (≈ 9.87 µM) | MIC (S. aureus SA0422; [22]): >64 µg/mL | MIC (S. aureus SA0422; [23]): 0.25 µg/mL (≈ 0.154 µM) | MIC (S. aureus SA0422; [24]): 1 µg/mL (≈ 0.617 µM) | MIC (S. aureus SA0422; [25]): 1 µg/mL (≈ 0.617 µM) | MIC (S. aureus SA0422; [26]): 2 µg/mL (≈ 1.23 µM) | MIC (S. aureus SA0422; [27]): 0.25 µg/mL (≈ 0.154 µM) | MIC (S. aureus SA0736; [28]): 1 µg/mL (≈ 0.617 µM) | MIC (S. aureus SA0736; [29]): 32 µg/mL (≈ 19.7 µM) | MIC (S. aureus SA0736; [30]): >64 µg/mL | MIC (S. aureus SA0736; [31]): 0.25 µg/mL (≈ 0.154 µM) | MIC (S. aureus SA0736; SA0736, selecting agent VAN, passage 5): 0.5 µg/mL (≈ 0.309 µM) | MIC (S. aureus SA0736; [32]): 0.5 µg/mL (≈ 0.309 µM) | MIC (S. aureus SA0736; [33]): 2 µg/mL (≈ 1.23 µM) | MIC values (S. aureus SA0736; [34]): > 64 µg/mL | MIC values (S. aureus SA0736; [35]): > 64 µg/mL | MIC (S. aureus SA0736; [36]): 0.25 µg/mL (≈ 0.154 µM) | MIC (S. aureus ATCC 29213; [37]): 0.5 µg/mL (≈ 0.309 µM) | MIC (S. aureus ATCC 29213; [38]): 32 µg/mL (≈ 19.7 µM) | MIC (S. aureus ATCC 29213; [39]): 64 µg/mL (≈ 39.5 µM) | MIC (S. aureus ATCC 29213; [40]): 0.125 µg/mL (≈ 0.0771 µM) | MIC (S. aureus ATCC 29213; [41]): 0.25 µg/mL (≈ 0.154 µM) | MIC (S. aureus ATCC 29213; [42]): 2 µg/mL (≈ 1.23 µM) | MIC (S. aureus ATCC 29213; [43]): 2 µg/mL (≈ 1.23 µM) | MIC (S. aureus ATCC 29213; [44]): 0.125 µg/mL (≈ 0.0771 µM) | change of MICs on deletion of SACOL1927 (yfhP) (S. aureus RN4220): did not change | MIC values (S. aureus RN4220; Table S1: RN4220 WT): 0.25 µg/mL (≈ 0.154 µM) | MIC values (S. aureus RN4220; [45]): 0.25 µg/mL (≈ 0.154 µM) | MIC (S. aureus RN4220): 0.25 µg/mL (≈ 0.154 µM) | MIC range by the 20th passage ([2]; all strains, 20th passage of daptomycin selection): 8 to 32 µg/mL | MIC correlated with mprF mutations ([2]; daptomycin-selected derivatives, after the 20th passage): up to 32 mg/L | MICs in derivatives of all strains after selection with vancomycin ([2]; selection with vancomycin, derivatives of all strains): 2 µg/mL | MIC ([3]; moderate increase): 2 µg/mL (≈ 1.23 µM) | effect on MIC [3]: no effect
